This note sets out measurements from ChEMBL document CHEMBL1130467, “Synthesis and antitumor activity of novel cyclopropapyrroloindole(CPI) derivatives bearing methoxycarbonyl and trifluoromethyl groups” (Bioorg Med Chem Lett, 1997).

Each structure is given as a SMILES string. Values after ≈ are worked out from the molar mass of the structure shown.

For experiment [1], the system named is P388. Kind of experiment: Percent increase in life span of p388 murine leukemia cells (inoculated i.p. on day 0) as compared to that of untreated group at 0.125 mg/kg i.p. compound dose on day 1. Format: functional. The settings on record: Mus musculus, P388, ip, route intraperitoneal.
The subject of experiment [2] is P388. The experiment is described as follows: Concentration required to inhibit p388 murine leukemia cells by 50%. The experiment is classed as functional, cell-based. The settings on record: Mus musculus.
Experiment [3] in a line: Percent tumor growth (TGI) inhibition against S180 murine Sarcoma cells( inoculated s.c. into male ICR mice on day 0), as compared to that of untreated group at 0.5 mg/kg i.v. compound dose on day 1. The note with it: Mus musculus, CCRF S-180, route intravenous, read-out: TGI. The experiment is classed as functional.
In experiment [4] the test system is P388. The experiment is described as follows: Percent increase in life span of p388 murine leukemia cells (inoculated i.p. on day 0) as compared to that of untreated group at 0.25 mg/kg i.p. compound dose on day 1; cured mice= 2/2. Format: functional. The settings on record: Mus musculus, P388, ip, route intraperitoneal.
Experiment [5] is described as follows: Percent tumor growth (TGI) inhibition against S180 murine Sarcoma cells( inoculated s.c. into male ICR mice on day 0), as compared to that of untreated group at 0.25 mg/kg i.v. compound dose on day 1. Format: functional. The note with it: Mus musculus, CCRF S-180, route intravenous, read-out: TGI.
The test system of experiment [6] is Colon 26. The experiment is described as follows: Antitumor activity against colon 26 murine adenocarcinoma cells expressed as percent TGI 50 (tumor growth inhibition) at 0.500 mg/kg i.v. compound dose. Format: functional, Mus musculus. The settings on record: dose 0.5 mg/kg; route intravenous.
Experiment [7] relates to Colon 26. Kind of experiment: Antitumor activity against colon 26 murine adenocarcinoma cells expressed as % body weight change at 0.125 mg/kg compound dose from day 7 to day 12. The experiment is classed as functional, Mus musculus.
Experiment [8] concerns Colon 26. Kind of experiment: Antitumor activity against colon 26 murine adenocarcinoma cells expressed as percent TGI (tumor growth inhibition) at 0.250 mg/kg i.v. compound dose. The note with it: Mus musculus, route intravenous, read-out: TGI. The experiment is classed as functional.
Experiment [9] has as its system Colon 26. The experiment is described as follows: Antitumor activity against colon 26 murine adenocarcinoma cells expressed as percent TGI (tumor growth inhibition) at 0.125 mg/kg i.v. compound dose. The experiment is classed as functional. The note with it: Mus musculus, route intravenous, read-out: TGI.
For experiment [10], the system named is Colon 26. The experiment is described as follows: Antitumor activity against colon 26 murine adenocarcinoma cells expressed as maximum dose within 10% body weight loss at 0.500 mg/kg i.v. compound dose. Format: functional, Mus musculus. The note with it: dose 0.5 mg/kg; route intravenous.
For experiment [11], the system named is Colon 26. The experiment is described as follows: Antitumor activity against colon 26 murine adenocarcinoma cells expressed as % body weight change at 0.0625 mg/kg compound dose from day 7 to day 12. The experiment is classed as functional, Mus musculus.
Experiment [12] has as its system Colon 26. Kind of experiment: Antitumor activity against colon 26 murine adenocarcinoma cells expressed as % body weight change at 0.250 mg/kg compound dose from day 7 to day 12. Format: functional, Mus musculus. The settings on record: dose 0.25 mg/kg.
For the next experiment, the system named is HeLa. The experiment is described as follows: Concentration required for 50% inhibition of human uterine Cervix Carcinoma cells (HeLaS3). The experiment is classed as functional, cell-based.
Experiment [13] has as its system Colon 26. The experiment is described as follows: Antitumor activity against colon 26 murine adenocarcinoma cells expressed as percent TGI (tumor growth inhibition) at 0.500 mg/kg i.v. compound dose. The experiment is classed as functional. The settings on record: Mus musculus, route intravenous, read-out: TGI.
Experiment [14] relates to Colon 26. Kind of experiment: Antitumor activity against colon 26 murine adenocarcinoma cells expressed as % body weight change at 0.500 mg/kg compound dose from day 7 to day 12. The experiment is classed as functional, Mus musculus. The settings on record: dose 0.5 mg/kg.
For experiment [15], the system named is Colon 26. The experiment is described as follows: Antitumor activity against colon 26 murine adenocarcinoma cells expressed as percent TGI (tumor growth inhibition) at 0.0625 mg/kg i.v. compound dose. Format: functional. The settings on record: Mus musculus, route intravenous, read-out: TGI.
Experiment [16] has as its system P388. Kind of experiment: Percent increase in life span of p388 murine leukemia cells (inoculated i.p. on day 0) as compared to that of untreated group at 0.25 mg/kg i.p. compound dose on day 1; cured mice =2/2. The settings on record: Mus musculus, P388, ip, route intraperitoneal. Format: functional.
The test system of experiment [17] is Colon 26. Kind of experiment: Antitumor activity against colon 26 murine adenocarcinoma cells expressed as % body weight change at 0.177 mg/kg i.v. compound dose from day 7 to day 12. The experiment is classed as functional, Mus musculus. The note with it: route intravenous.
For experiment [18], the system named is Colon 26. Kind of experiment: Antitumor activity against colon 26 murine adenocarcinoma cells expressed as maximum dose within 10% body weight loss at 0.177 mg/kg i.v. compound dose. The experiment is classed as functional, Mus musculus. The note with it: route intravenous.
In experiment [19] the test system is Colon 26. The experiment is described as follows: Antitumor activity against colon 26 murine adenocarcinoma cells expressed as % body weight change at 0.0313 mg/kg compound dose from day 7 to day 12. Format: functional, Mus musculus.
Experiment [20] has as its system Colon 26. The experiment is described as follows: Antitumor activity against colon 26 murine adenocarcinoma cells expressed as percent TGI (tumor growth inhibition) at 0.0313 mg/kg i.v. compound dose. The experiment is classed as functional. The note with it: Mus musculus, route intravenous, read-out: TGI.
Experiment [21] concerns Colon 26. The experiment is described as follows: Antitumor activity against colon 26 murine adenocarcinoma cells expressed as percent TGI 50 (tumor growth inhibition) at 0.177 mg/kg i.v. compound dose. Format: functional, Mus musculus. The settings on record: route intravenous.
Experiment [22] deals with Colon 26. The experiment is described as follows: Antitumor activity against colon 26 murine adenocarcinoma cells expressed as percent TGI (tumor growth inhibition) at 0.177 mg/kg i.v. compound dose. The experiment is classed as functional. The settings on record: Mus musculus, route intravenous, read-out: TGI.
Experiment [23] concerns Colon 26. The experiment is described as follows: Antitumor activity against colon 26 murine adenocarcinoma cells expressed as percent TGI 50 (tumor growth inhibition) at 0.707 mg/kg i.v. compound dose. The experiment is classed as functional, Mus musculus. The settings on record: route intravenous.
Experiment [24] relates to Colon 26. The experiment is described as follows: Antitumor activity against colon 26 murine adenocarcinoma cells expressed as maximum dose within 10% body weight loss at 0.707 mg/kg i.v. compound dose. Format: functional, Mus musculus. The settings on record: route intravenous.
The test system of experiment [25] is Colon 26. Kind of experiment: Antitumor activity against colon 26 murine adenocarcinoma cells expressed as percent TGI (tumor growth inhibition) at 0.707 mg/kg i.v. compound dose. The note with it: Mus musculus, route intravenous, read-out: TGI. Format: functional.
In experiment [26] the test system is Colon 26. Kind of experiment: Antitumor activity against colon 26 murine adenocarcinoma cells expressed as % body weight change at 0.707 mg/kg compound dose from day 7 to day 12. The experiment is classed as functional, Mus musculus.

Consider `COC(=O)c1c(C(F)(F)F)[nH]c2c1C13CC1CN(C(=O)c1cc4cc(OC)c(OC)c(OC)c4[nH]1)C3=CC2=O` (racemic), for which, in the experiment with P388 [1], the ILS at 0.125 mg/kg turned out to be 94%. It took 0.24 ng/mL (≈ 0.44 nM) to reach half-maximal inhibition with P388 [2] (IC50). In addition, the inhibition in vivo at 0.5 mg/kg in [3] is 92%.
`COC(=O)c1c(C(F)(F)F)[nH]c2c1C13CC1CN(C(=O)c1cc4cc(NC(=O)c5cc6ccccc6[nH]5)ccc4[nH]1)C3=CC2=O` (racemic) returned an IC50 in the experiment on P388 [2] of 0.86 ng/mL (≈ 1.4 nM). This compound registered an increase in life span (ILS) at 0.25 mg/kg in the experiment with P388 [4] of 2%. Besides, the inhibition in vivo at 0.25 mg/kg in experiment [5] amounted to 84%.
As for `COC(=O)c1[nH]c2c(c1C(=O)OC)C13CC1CN(C(=O)c1cc4cc(NC(=O)c5cc6ccccc6o5)ccc4[nH]1)C3=CC2=O` (racemic), the ILS at 0.125 mg/kg with P388 [1] stood at 79%. Also, 0.66 ng/mL (≈ 1.09 nM) corresponded to half-maximal inhibition with P388 [2] (IC50). Further, the inhibition in vivo at 0.5 mg/kg in [3] was 26%.
For `COC(=O)c1[nH]c2c(c1C(=O)OC)C13CC1CN(C(=O)c1cc4cc(NC(=O)c5cc6ccccc6[nH]5)ccc4[nH]1)C3=CC2=O` (racemic) the same measures were 102%, 0.31 ng/mL (≈ 0.514 nM) and 44%.
Compound `COC(=O)c1c(C(F)(F)F)[nH]c2c(OC(=O)N3CCN(C)CC3)cc3c(c12)[C@H](CBr)CN3C(=O)c1cc2cc(OC)c(OC)c(OC)c2[nH]1` had a TGI50 with Colon 26 [6] of 0.0429. For the same compound, the “Change in body weight” value in the experiment with Colon 26 [7] is 1%; in the experiment on Colon 26 [11], 2%; in the experiment on Colon 26 [12] it was 5%; with Colon 26 [14], 8%. Besides, the inhibition in vivo at 0.25 mg/kg in the experiment on Colon 26 [8] turned out to be 90%. Besides, the inhibition in vivo at 0.125 mg/kg in the experiment with Colon 26 [9] was 76%. Besides, the “MTD/ TGI50” value in the experiment on Colon 26 [10] was 11.7. In the experiment with HeLa, this compound had an IC50 of 18.8 ng/mL (≈ 25 nM). Besides, the inhibition in vivo at 0.5 mg/kg in the experiment with Colon 26 [13] was found to be 93%. In the experiment on Colon 26 [15], the inhibition in vivo at 0.0625 mg/kg turned out to be 58%.
As to `COC(=O)c1c(C(F)(F)F)[nH]c2c1C13CC1CN(C(=O)c1cc4cc(OC)ccc4[nH]1)C3=CC2=O` (racemic), in the experiment on P388 [1], the ILS at 0.125 mg/kg is 69%. The IC50 in the experiment with P388 [2] amounted to 0.23 ng/mL (≈ 0.474 nM). In addition, the inhibition in vivo at 0.25 mg/kg in experiment [5] came out at 54%.
In turn, `COC(=O)c1c(C(F)(F)F)[nH]c2c1C13CC1CN(C(=O)c1cc4cc(NC(=O)c5cc6ccccc6o5)ccc4[nH]1)C3=CC2=O` (racemic) returned an ILS at 0.25 mg/kg in the experiment on P388 [16] of 2%. For the same compound, the “Change in body weight” value is on record as -3% in the experiment with Colon 26 [17], -4% in the experiment with Colon 26 [7], 0% in the experiment with Colon 26 [19] and -3% with Colon 26 [11]. For the same compound, the “MTD/ TGI50” value in the experiment on Colon 26 [18] is listed as 4.3. The 50% inhibitory concentration (IC50) with P388 [2] turned out to be 0.53 ng/mL (≈ 0.862 nM); in the experiment on HeLa it was 0.365 ng/mL (≈ 0.594 nM). In addition, in the experiment with Colon 26 [9], the inhibition in vivo at 0.125 mg/kg turned out to be 87%. The inhibition in vivo at 0.0313 mg/kg with Colon 26 [20] was 39%. Moreover, in the experiment with Colon 26 [21], the TGI50 is 0.041. Besides, in the experiment on Colon 26 [22], the inhibition in vivo at 0.177 mg/kg is 85%. Moreover, in the experiment with Colon 26 [15], the inhibition in vivo at 0.0625 mg/kg was 68%. In addition, in experiment [5], the inhibition in vivo at 0.25 mg/kg was 83%.
Compound `COC(=O)c1c(C)[nH]c2c(OC(=O)N3CCN(C)CC3)cc3c(c12)[C@H](CBr)CN3C(=O)c1cc2cc(OC)c(OC)c(OC)c2[nH]1` [PIBROZELESIN] came in with a TGI50 in the experiment on Colon 26 [23] of 0.209 mg/kg. The “Change in body weight” value in the experiment with Colon 26 [7] is 1%; with Colon 26 [26], -9%; in the experiment with Colon 26 [12] it was -2%; in the experiment with Colon 26 [14] it was -1%. Besides, in the experiment on Colon 26 [24], the “MTD/ TGI50” value came out at 3.4. Further, the inhibition in vivo at 0.707 mg/kg with Colon 26 [25] amounted to 90%. For the same compound, the inhibition in vivo at 0.25 mg/kg with Colon 26 [8] was 62%. For the same compound, the inhibition in vivo at 0.125 mg/kg in the experiment with Colon 26 [9] stood at 26%. This compound also displayed an IC50 in the experiment on HeLa of 18.1 ng/mL (≈ 25.9 nM). The inhibition in vivo at 0.5 mg/kg in the experiment on Colon 26 [13] is 85%.
Turning to `COC(=O)c1c(C)[nH]c2c1[C@@]13C[C@@H]1CN(C(=O)c1cc4cc(OC)c(OC)c(OC)c4[nH]1)C3=CC2=O` (racemic), in the experiment on P388 [1], the increase in lifespan (ILS) at 0.125 mg/kg amounted to 80%. In addition, the half-inhibitory concentration (IC50) in the experiment with P388 [2] stood at 0.34 ng/mL (≈ 0.692 nM). Besides, the inhibition in vivo at 0.5 mg/kg in [3] is 81%.

Usually ILS stands for how much longer treated animals lived than controls. High values mean much gain in survival, low ones little gain in survival. For orientation: IC50 means the concentration needed to halve the response being measured.
